Laboratory results reported in patent US20240415918A1, “Polypeptide and its use as a CCK receptor agonist/antagonist” (Centre for Regenerative Medicine & Health, Hong Kong …, priority 2021, published 2024).
“Also recorded” adds a separate entry of the source.

Legend:
[1] = tested on: neocortex of Alzheimer's mice; assay: Long-term potentiation, in vitro field potential recording of brain slices (MED64), Alzheimer's mice; format: cell-based; conditions: compound injected for five minutes
Text: An in vitro electrophysiological electrical signal recording method was used to investigate whether compound HT-267 can induce long-term potentiation in the neocortex of Alzheimer's mice. The MED64 low-noise multi-electrode recording system was used to record the electrical signals of brain slices cultured in vitro. […] It was shown that compound HT-267 could induce long-term potentiation in the neocortex of Alzheimer's mice.

[2] = Pharmacokinetics in KM mice after intravenous administration; conditions: male, mouse, plasma, 1 mg/kg
memory-deficient mice [3] = assay: New object recognition experiment, memory-deficient mice; format: in vivo; conditions: intraperitoneal injection
Text: The new object recognition experiment is a highly validated method of cognitive memory, designed by Ennaceur & Delacour (1988) based on the exploration characteristics of rodents to new environments, and this model evaluates the memory function of the tested animal based on the length of time that the animal spends in exploring familiar objects it has seen in the environment and new objects it has not seen. […] The experiment is usually divided into three stages: 1. Adaptation period: let the animal be familiar with the experimental environment, and no objects are placed in the experimental box; 2. Familiarization period: place two identical objects in the experimental box and let the mice explore freely for 10 minutes; 3. Test period: put a new object in the experimental box to replace one of the old objects, and the positions of the objects remain unchanged. The exploration of mice was recorded with video, and the time spent in exploring the old and new objects by mice was analyzed, and the proportion of time spent in exploring the new object by mice in the test period accounting for the total time for exploring the objects was calculated, that is, the recognition index of new objects.
Adult memory-deficient mice were housed under standard conditions with free access to food and water. Our new object recognition experiment for testing memory-deficient mice mainly included the adaptation period, the familiarization period, and the test period. The experimental method was the same as Example 12.
We randomized memory-deficient mice into four groups, with one group given intraperitoneal injection of the solvent of drug as the control group, administration group 1 given intraperitoneal injection of the compound HT-267 solution, administration group 2 given intraperitoneal injection of the compound HT-177 solution, and administration group 3 given intraperitoneal injection of the compound HT-178 solution. After the adaptation and familiarization period training, we tested the recognition memory of several groups of mice in the test period experiment.

memory-deficient mice [4] = assay: Morris water maze, memory-deficient mice; format: in vivo; conditions: intraperitoneal injection, CCK4 four times a day 10 days, HT compounds once a day 8 days
Text: Adult memory-deficient mice were housed under standard conditions with free access to food and water. Our Morris water maze experiment for testing memory-deficient mice mainly included two parts: positioning navigation experiment and space exploration experiment. The experimental methods were the same as Example 5. We randomized memory-deficient mice into six groups, with the first group given intraperitoneal injection of the CCK4 solution, the second group given intraperitoneal injection of the solvent of CCK4 solution as a control, the third group given intraperitoneal injection of the compound HT-267 solution, the fourth group given intraperitoneal injection of the compound HT-177 solution, the fifth group given intraperitoneal injection of the compound HT-178 solution, and the sixth group given intraperitoneal injection of the solvent of compound solution as a control. In the positioning navigation experiment, the treatment and training methods of the first and the second groups were the same as those of the first and second groups in Example 5, that is, four times of treatment a day, four times of training a day, for a total of 10 days of training. The treatment and training methods of the third to sixth groups were the same as the third and fourth groups in Example 5, that is, one treatment a day, four times of training a day, for a total of 8 days of training. In the space exploration experiment, the spatial memory ability of mice was tested in the same way for each group.

SMILES: CSCC[C@H](NC(=O)[C@@H](Cc1c[nH]c2ccccc12)NC(C)=O)C(=O)N[C@@H](CC(=O)O)C(=O)N[C@@H](Cc1cccc(Br)c1)C(N)=O [HT-267, Ac-D-Trp-Met-Asp-Phe(3-Br)-NH2]
- basal field potential after administration (long-term potentiation) [1]: enhanced, and the enhancement lasted for more than one hour
- AUC(0-inf) [2]: 302 ng·h/mL
- Cmax [2]: 1930 ng/mL
- Tmax [2]: 1.98 min
- half-life ([2]; T1/2, KM mice male, I.V. 1 mg/kg): 96.1 min
- recognition index of new objects vs control (memory-deficient mice [3]): significantly higher than that of the control group
- proportion of exploration duration in the target quadrant vs control (memory-deficient mice [4]): significantly higher than that in the control group; also recorded: best effect
